{"source": "patent US20230104823A1", "about": "“PROCESS FOR THE PREPARATION OF PURINE DERIVATIVES EXHIBITING CDK INHIBITORY ACTIVITY” (CYCLACEL LIMITED, priority 2020, published 2023)", "key": {"CDK": {"system": "CDK", "conditions": "statement in background section; cited from earlier work"}, "[1]": {"system": "range of different cell lines", "conditions": "statement in background section; cited from earlier work"}, "[2]": {"test": "solubility measurement during crystallisation of crude compound [1]", "assay_type": "physicochemical", "conditions": "for T=0 solubility measurement: 5 volumes", "method": "The hot mixture was clarified through a heated large nylon syringe filter (0.44 μm) into a Mya4 100 ml process vessel with overhead U-shape agitation at 200 RPM pre-heated to 95° C. (target internal temperature=80-85° C.). The dark brown solution was cooled to 74.5° C. over 15 minutes and seeded with crystals of compound [1] (Form A) (ca. 6 mg 0.1% wt). […] Noticeable amounts of off-white precipitate were observed ca. 61-62° C. Following cooling, the mixture was held at 0° C. for ca. 3 hours. The solids were isolated via filtration, with no evidence of fouling of the vessel or agitator. The vessel and filter cake were washed with the isolated filtrates and air dried for 15 minutes before collection of the off-white solids and dark brown liquors. The solids were collected and dried in vacuo at 45° C. for ca. 4 hours to yield the title compound. 4.88 g of crystalline Compound [1] was successfully isolated in 80.1% yield. The maximum theoretical recovery based upon measured solubility pre-isolation at 0° C. was 94.2%.\nCrude Compound [1] (6.00 g) was suspended ethyl acetate (30 ml, 5 volumes) in a suitable glass vessel under N2 fitted with reflux condenser and stirrer bead agitation at 420 RPM. The beige suspension was heated to 75° C. (target 70-75° C.) upon which full dissolution to a dark brown solution was achieved during heating at ca. 68° C. The hot mixture was clarified through a heated large nylon syringe filter (0.44 μm) into a Mya4 100 ml process vessel with overhead U-shape agitation at 200 RPM pre-heated to 85° C. (target internal temperature=70-75° C.). The dark brown solution was cooled to 65.2° C. over 15 minutes (target 62.5-67.5° C.) and seeded with crystals of compound [1] (Form A) (ca. 6 mg 0.1% wt). Cooling was continued to 59.8° C. […] The solids were isolated via filtration. The vessel and filter cake were washed with the isolated filtrates and air dried for 12 minutes before collection of the off-white solids and dark brown liquors. The solids were collected and dried in vacuo at 45° C. for ca. 4 hours to yield the title compound. 4.59 g of crystalline Compound [1] was successfully isolated in 76.4% yield. The maximum theoretical recovery based upon measured solubility pre-isolation at 0° C. was 90.6%.\nCrude Compound [1] (5.96 g) was suspended n-Butyl acetate (30 ml, 5 volumes) in a suitable glass vessel under N2 fitted with reflux condenser and stirrer bead agitation at 420 RPM. The beige suspension was heated to 85° C. (target 80-85° C.) upon which full dissolution to a dark brown solution was achieved during heating at ca. 82° C. The hot mixture was clarified through a heated large nylon syringe filter (0.44 μm) into a Mya4 100 ml process vessel with overhead U-shape agitation at 200 RPM pre-heated to 95° C. (target internal temperature=80-85° C.). The dark brown solution was cooled to 74.6° C. over 15 minutes (target 72.5-77.5° C.) and seeded with crystals of compound [1] (Form A) (ca. 6 mg 0.1% wt). Cooling was continued to 69.5° C. […] The solids were isolated via filtration. The vessel and filter cake were washed with the isolated filtrates and air dried for 10 minutes before collection of the grey solids and dark brown liquors. The solids were collected and dried in vacuo at 45° C. for ca. 4 hours to yield the title compound. 4.64 g of crystalline Compound [1] was successfully isolated in 77.9% yield. The maximum theoretical recovery based upon measured solubility pre-isolation at 0° C. was 91.7%."}}}
{"smiles": "CC[C@H](Nc1nc(NCc2cnc(C)cc2C)c2ncn(C(C)C)c2n1)[C@@H](C)O", "note": "[Compound [1]]", "values": [{"measurement": "CDK inhibitory activity", "setting": "CDK", "result": "potent CDK inhibitory activity"}, {"measurement": "potency in cellular toxicity studies", "setting": "[1]", "result": "surprisingly high potency"}, {"measurement": "T=0 solubility measurement", "setting": "[2]; ethyl acetate, after seeding at 59.8° C.", "result": 184.35, "unit": "mg/mL"}, {"measurement": "solubility", "setting": "[2]; ethyl acetate, held at 0° C. for ca. 5 hours (90.06% development)", "result": 18.84, "unit": "mg/mL"}, {"measurement": "T=0 solubility measurement", "setting": "[2]; isopropyl acetate, after seeding at 70.1° C.", "result": 189.83, "unit": "mg/mL"}, {"measurement": "T=0 solubility measurement", "setting": "[2]; n-butyl acetate, after seeding at 69.5° C.", "result": 175.84, "unit": "mg/mL"}, {"measurement": "solubility", "setting": "[2]; n-butyl acetate, held at 0° C. for ca. 3 hours (91.7% development)", "result": 16.61, "unit": "mg/mL"}]}
